Values quoted from earlier work, collected in PMC9569971, “New Oxazolo[5,4-d]pyrimidines as Potential Anticancer Agents: Their Design, Synthesis, and In Vitro Biological Activity Research” (International Journal of Molecular Sciences, 2022).
Where two headings read alike, the source gives them in different places.

What was measured:
Details in all cases: cited from earlier work
[1] = tested on: HT29
[2] = tested on: MCF7
[3] = tested on: A549
[4] = tested on: LoVo
[5] = tested on: HT29 cells; set-up: method as in PMID 27002410

Q: Which IC50 ([1]; ref 77) does the source give for `Cc1ccc(Nc2nccc(N(C)c3ccc4c(C)n(C)nc4c3)n2)cc1S(N)(=O)=O` [Pazopanib] here?
A: The IC50 was greater than 5 µM.

Q: What about the IC50 [2] of the same compound?
A: The IC50 was 6.29 µM.

Q: And the IC50 ([3]; ref 75, read-out: IC50 (converted))?
A: The IC50 was 4 to 6 µM.

Q: Which IC50 ([1]; ref 66) does the source give for `CNC(=O)c1cc(Oc2ccc(NC(=O)Nc3ccc(Cl)c(C(F)(F)F)c3)c(F)c2)ccn1` [Regorafenib] here?
A: Its IC50 is 2.75 ± 0.18 µM.

Q: What about the IC50 [4] of the same compound?
A: Its IC50 is 2 µM.

Q: Which results are given for `CNC(=O)c1cc(Oc2ccc(NC(=O)Nc3ccc(Cl)c(C(F)(F)F)c3)cc2)ccn1` [Sorafenib]?
A: IC50 ([1]; ref 80): 17.3 ± 3.8 µM; IC50 ([3]; ref 80, read-out: IC50 (converted)): 5.62 ± 2.13 µM; IC50 [4]: 31 µM

Q: What does the source list for `CCN(CC)CCNC(=O)c1c(C)[nH]c(/C=C2\C(=O)Nc3ccc(F)cc32)c1C` [Sunitinib]?
A: IC50 ([1]; ref 78): 4.89 µM; IC50 ([1]; ref 79): 2.25 µM; IC50 [2]: 7.3 µM; IC50 ([3]; ref 78, read-out: IC50 (converted)): 6.98 µM; IC50 [4]: 4.18 ± 0.27 µM

Q: Which results are given for `COc1cc2nccc(Oc3ccc(NC(=O)Nc4cc(C)on4)c(Cl)c3)c2cc1OC` [Tivozanib]?
A: IC50 [2]: 0.25 ± 0.03 µM; IC50 ([3]; ref 64, read-out: IC50 (converted)): 0.19 ± 0.04 µM

Q: With `COc1cc2c(Nc3ccc(Br)cc3F)ncnc2cc1OCC1CCN(C)CC1` [Vandetanib] as the compound, how does the IC50 ([1]; ref 74) read?
A: The IC50 was 10 ± 0.4 µM.

Q: And the IC50 [2]?
A: Its IC50 is 12.2 ± 0.28 µM.

Q: What about the IC50 ([3]; ref 72, read-out: IC50 (converted)) of the same compound?
A: The IC50 was 2.7 ± 0.5 µM.

Q: And the IC50 [4]?
A: Its IC50 is 3.5 ± 0.9 µM.

Q: With `COc1ccc(CCN(C)CCCC(C#N)(c2ccc(OC)c(OC)c2)C(C)C)cc1OC` (stereo not drawn) [verapamil] as the compound, how does the “intracellular fluorescence intensity of Rh-123, increase” value ([5]; HT29, treatment 48 h) read?
A: Its value is 1.77 fold.

Q: And the “intracellular fluorescence intensity of Rh-123, increase” value ([5]; HT29, treatment 72 h)?
A: The value was 1.9 fold.
